Molecular target: STAT3 (Homo sapiens, UniProt P40763)
Experiment: STAT3 HiBiT degradation assay in transfected A549 cells
Format: cell-based
Set-up: expressed in transfected cells; host or cells: A549
Conditions: A549, 24 h; read-out: STAT3 HiBiT A549 degradation 24 h: Average external-Abs DC50
How it was run: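 Degradation read as HiBiT-tagged STAT3 luminescence (Nano-Glo lytic reagent, 10 min, room temperature) following 24 h compound treatment of transfected A549 cells at 3-fold, 10 points. Percent remaining signal computed against controls and fitted with a four-parameter logistic; DC50 reported as letter bins (A <0.01 to D >1.0 µM).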

Sequence of STAT3 (P40763 whole entry): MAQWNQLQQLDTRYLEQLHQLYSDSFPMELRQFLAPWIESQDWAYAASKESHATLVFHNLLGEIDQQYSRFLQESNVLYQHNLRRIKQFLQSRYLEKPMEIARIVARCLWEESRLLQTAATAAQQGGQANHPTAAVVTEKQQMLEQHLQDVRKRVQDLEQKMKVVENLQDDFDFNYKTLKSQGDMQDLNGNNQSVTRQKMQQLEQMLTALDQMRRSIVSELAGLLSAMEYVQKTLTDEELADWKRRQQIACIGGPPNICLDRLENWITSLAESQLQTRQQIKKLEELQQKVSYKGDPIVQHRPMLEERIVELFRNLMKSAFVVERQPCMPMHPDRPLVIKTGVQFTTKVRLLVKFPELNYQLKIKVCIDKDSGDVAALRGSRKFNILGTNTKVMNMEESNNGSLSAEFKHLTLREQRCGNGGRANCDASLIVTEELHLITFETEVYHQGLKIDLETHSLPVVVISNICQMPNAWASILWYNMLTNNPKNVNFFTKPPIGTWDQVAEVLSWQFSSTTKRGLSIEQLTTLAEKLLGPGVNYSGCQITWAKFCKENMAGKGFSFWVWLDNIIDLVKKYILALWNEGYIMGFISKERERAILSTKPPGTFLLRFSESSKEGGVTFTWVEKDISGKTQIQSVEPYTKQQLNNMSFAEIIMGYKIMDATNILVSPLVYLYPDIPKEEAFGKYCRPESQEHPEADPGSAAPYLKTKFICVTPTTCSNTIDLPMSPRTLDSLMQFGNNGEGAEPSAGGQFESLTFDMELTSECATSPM

Compound | DC50 [nM]
Cc1ncsc1-c1ccc(CNC(=O)[C@@H]2C[C@@H](O)CC2C(=O)[C@@H](NC(=O)CCCCC/C=C\COC[C@H](CCC(N)=O)NC(=O)[C@@H]2Cc3cccc4c3N2C(=O)[C@@H](NC(=O)c2cc3cc(C(=O)P(=O)(O)O)ccc3[nH]2)CC4)C(C)(C)C)cc1 (stereo partly drawn) [Compound I-171] | 100 to 1000
CC(=O)N1CC[C@H]2CC[C@@H](C(=O)N[C@@H](CCC(N)=O)C(=O)NCCCCCCCC(=O)N[C@H](C(=O)N3C[C@H](O)C[C@H]3C(=O)NCc3ccc(-c4scnc4C)cc3)C(C)(C)C)N2C(=O)[C@@H](NC(=O)c2cc3cc(C(=O)P(=O)(O)O)ccc3[nH]2)C1 [Compound I-172, 2-[[(5S,8S,10aR)-3-acetyl-8-[[(1S)-3-carbamoyl-1-[(7-[[(2S)-1-[(2S,4R)-4-hydroxy-2-([[4-(4-methyl-1,3-thiazol-5-yl)phenyl]methyl]carbamoyl)pyrrolidin-1-yl]-3,3-dimethyl-1-oxobutan-2-yl]carbamoyl]heptyl)carbamoyl]propyl]carbamoyl]-6-oxo-octahydropyrrolo[1,2-a][1,5]diazocin-5-yl]carbamoyl]-1H-indole-5-carbonylphosphonic acid] | > 1000
CC(=O)N1CC[C@H]2CC[C@@H](C(=O)N[C@@H](CCC(N)=O)C(=O)NCCCCCCCCC(=O)N[C@H](C(=O)N3C[C@H](O)C[C@H]3C(=O)NCc3ccc(-c4scnc4C)cc3)C(C)(C)C)N2C(=O)[C@@H](NC(=O)c2cc3cc(C(=O)P(=O)(O)O)ccc3[nH]2)C1 [Compound I-173] | > 1000
Cn1c(=O)n(C2CCC(=O)NC2=O)c2ccc(N3CCN(CCC(=O)N4CC[C@H]5CC[C@@H](C(=O)N[C@@H](CCC(N)=O)C(=O)NC(c6ccccc6)c6ccccc6)N5C(=O)[C@@H](NC(=O)c5cc6cc(C(=O)P(=O)(O)O)ccc6[nH]5)C4)CC3)cc21 (stereo partly drawn) [Compound I-175, 2-[[(5S,8S,10aR)-8-[[(1S)-3-carbamoyl-1-(diphenylmethylcarbamoyl)propyl]carbamoyl]-3-(3-[4-[1-(2,6-dioxopiperidin-3-yl)-3-methyl-2-oxo-1,3-benzodiazol-5-yl]piperazin-1-yl]propanoyl)-6-oxo-octahydropyrrolo[1,2-a][1,5]diazocin-5-yl]carbamoyl]-1H-indole-5-carbonylphosphonic acid] | 100 to 1000
Cc1ncsc1-c1ccc(CNC(=O)C2C[C@@H](O)CN2C(=O)[C@@H](NC(=O)CC2CC(c3ccc(CO[C@H](C)[C@H](CCC(N)=O)NC(=O)[C@@H]4Cc5cccc6c5N4C(=O)[C@@H](NC(=O)c4cc5cc(C(=O)P(=O)(O)O)ccc5[nH]4)CC6)cc3)C2)C(C)(C)C)cc1 (stereo partly drawn) [Compound I-176] | > 1000
Cn1c(=O)n(C2CCC(=O)NC2=O)c2ccc(C3CCN(CCC(=O)N4CC[C@H]5CC[C@@H](C(=O)N[C@@H](CCC(N)=O)C(=O)NC(c6ccccc6)c6ccccc6)N5C(=O)[C@@H](NC(=O)c5cc6cc(C(=O)P(=O)(O)O)ccc6[nH]5)C4)CC3)cc21 (stereo partly drawn) [Compound I-177, 2-[[(5S,8S,10aR)-8-[[(1S)-3-carbamoyl-1-(diphenylmethylcarbamoyl)propyl]carbamoyl]-3-(3-[4-[1-(2,6-dioxopiperidin-3-yl)-3-methyl-2-oxo-1,3-benzodiazol-5-yl]piperidin-1-yl]propanoyl)-6-oxo-octahydropyrrolo[1,2-a][1,5]diazocin-5-yl]carbamoyl]-1H-indole-5-carbonylphosphonic acid] | 100 to 1000
Cc1ncsc1-c1ccc(CNC(=O)[C@@H]2C[C@@H](O)CN2C(=O)[C@@H](NC(=O)CN2CCC(Cc3ccc(CO[C@H](C)[C@H](CCC(N)=O)NC(=O)[C@@H]4Cc5cccc6c5N4C(=O)[C@@H](NC(=O)c4cc5cc(C(=O)P(=O)(O)O)ccc5[nH]4)CC6)cc3)CC2)C(C)(C)C)cc1 [Compound I-178] | > 1000
Cc1ncsc1-c1ccc(CNC(=O)[C@@H]2C[C@@H](O)CN2C(=O)[C@@H](NC(=O)CCCCc2ccc(CN(C)C[C@H](CCC(N)=O)NC(=O)[C@@H]3Cc4cccc5c4N3C(=O)[C@@H](NC(=O)c3cc4cc(C(=O)P(=O)(O)O)ccc4[nH]3)CC5)cc2)C(C)(C)C)cc1 [Compound I-179, 2-[[(2S,11S)-2-[[(2S)-4-carbamoyl-1-([[4-(4-[[(2S)-1-[(2S,4R)-4-hydroxy-2-([[4-(4-methyl-1,3-thiazol-5-yl)phenyl]methyl]carbamoyl)pyrrolidin-1-yl]-3,3-dimethyl-1-oxobutan-2-yl]carbamoyl]butyl)phenyl]methyl](methyl)amino)butan-2-yl]carbamoyl]-12-oxo-1-azatricyclo[6.4.1.0^[4,13]]trideca-4(13),5,7-trien-11-yl]carbamoyl]-1H-indole-5-carbonylphosphonic acid] | 100 to 1000
Cn1c(=O)n(C2CCC(=O)NC2=O)c2ccc(CCCCCCC(=O)N3CC[C@H]4CC[C@@H](C(=O)N[C@H](CCC(N)=O)C(=O)NC(c5ccccc5)c5ccccc5)N4C(=O)[C@@H](NC(=O)c4cc5cc(C(=O)P(=O)(O)O)ccc5[nH]4)C3)cc21 (stereo partly drawn) [Compound I-181, 2-[[(5S,8S,10aR)-8-[[(1R)-3-carbamoyl-1-(diphenylmethylcarbamoyl)propyl]carbamoyl]-3-[7-[1-(2,6-dioxopiperidin-3-yl)-3-methyl-2-oxo-1,3-benzodiazol-5-yl]heptanoyl]-6-oxo-octahydropyrrolo[1,2-a][1,5]diazocin-5-yl]carbamoyl]-1H-indole-5-carbonylphosphonic acid] | > 1000
Cn1c(=O)n(C2CCC(=O)NC2=O)c2ccc(CCCCCCCc3cc4c5c(c3)C[C@@H](C(=O)N[C@@H](CCC(N)=O)C(=O)NC(c3ccccc3)c3ccccc3)N5C(=O)[C@@H](NC(=O)c3cc5cc(C(=O)P(=O)(O)O)ccc5[nH]3)CC4)cc21 (stereo partly drawn) [Compound I-182, 2-[[(2S,11S)-2-[[(1S)-3-carbamoyl-1-(diphenylmethylcarbamoyl)propyl]carbamoyl]-6-[7-[1-(2,6-dioxopiperidin-3-yl)-3-methyl-2-oxo-1,3-benzodiazol-5-yl]heptyl]-12-oxo-1-azatricyclo[6.4.1.0^[4,13]]trideca-4(13),5,7-trien-11-yl]carbamoyl]-1H-indole-5-carbonylphosphonic acid] | 100 to 1000
C[C@@H](OCc1ccccc1)[C@H](CCC(N)=O)NC(=O)[C@@H]1CC[C@@H]2CCN(C(=O)CCCCCCc3ccc4c(c3)n(C)c(=O)n4C3CCC(=O)NC3=O)C[C@H](NC(=O)c3cc4cc(C(=O)P(=O)(O)O)ccc4[nH]3)C(=O)N21 (stereo partly drawn) [Compound I-184, 2-[[(5S8S,10aR)-8-[[(3S,4R)-4-(benzyloxy)-1-carbamoylpentan-3-yl]carbamoyl]-3-[7-[1-(2,6-dioxopiperidin-3-yl)-3-methyl-2-oxo-1,3-benzodiazol-5-yl]heptanoyl]-6-oxo-octahydropyrrolo[1,2-a][1,5]diazocin-5-yl]carbamoyl]-1H-indole-5-carbonylphosphonic acid] | 100 to 1000
Cc1ncsc1-c1ccc([C@H](C)NC(=O)[C@@H]2C[C@@H](O)CN2C(=O)[C@@H](NC(=O)CCCc2cccc(OC[C@@H](NC(=O)[C@@H]3Cc4cccc5c4N3C(=O)[C@@H](NC(=O)c3cc4cc(C(=O)P(=O)(O)O)ccc4[nH]3)CC5)C(N)=O)c2)C(C)(C)C)cc1 [Compound I-194, diammonium 2-[[(2S,11S)-2-[[(2S)-4-carbamoyl-1-[3-(3-[[(2S)-1-[(2S,4R)-4-hydroxy-2-[[(1S)-1-[4-(4-methyl-1,3-thiazol-5-yl)phenyl]ethyl]carbamoyl]pyrrolidin-1-yl]-3,3-dimethyl-1-oxobutan-2-yl]carbamoyl]propyl)phenoxy]butan-2-yl]carbamoyl]-12-oxo-1-azatricyclo[6.4.1.0^[4,13]]trideca-4(13),5,7-trien-11-yl]carbamoyl]-1H-indole-5-carbonylphosphonate] | 10 to 100
Cn1c(=O)n(C2CCC(=O)NC2=O)c2ccc(C[C@H]3CC[C@@H](CC(=O)N4CC[C@H]5CC[C@@H](C(=O)N[C@@H](CCC(N)=O)C(=O)NCc6cccc7ccccc67)N5C(=O)[C@@H](NC(=O)c5cc6cc(C(=O)P(=O)(O)O)ccc6[nH]5)C4)CC3)cc21 (stereo partly drawn) [Compound I-197, 2-[[(5S,8S,10aR)-8-[[(1S)-3-carbamoyl-1-[(naphthalen-1-ylmethyl)carbamoyl]propyl]carbamoyl]-6-oxo-3-[2-[(1S,4S)-4-[[1-(2,6-dioxopiperidin-3-yl)-3-methyl-2-oxo-1,3-benzodiazol-5-yl]methyl]cyclohexyl]acetyl]-octahydropyrrolo[1,2-a][1,5]diazocin-5-yl]carbamoyl]-1H-indole-5-carbonylphosphonic acid] | 100 to 1000
Cn1c(=O)n(C2CCC(=O)NC2=O)c2ccc(CCCCCc3cc4c5c(c3)C[C@@H](C(=O)N[C@@H](CCC(N)=O)C(=O)NC(c3ccccc3)c3ccccc3)N5C(=O)[C@@H](NC(=O)c3cc5cc(C(=O)P(=O)(O)O)ccc5[nH]3)CC4)cc21 (stereo partly drawn) [Compound I-198, 2-[[(2S,11S)-2-[[(1S)-3-carbamoyl-1-(diphenylmethylcarbamoyl)propyl]carbamoyl]-6-[5-[1-(2,6-dioxopiperidin-3-yl)-3-methyl-2-oxo-1,3-benzodiazol-5-yl]pentyl]-12-oxo-1-azatricyclo[6.4.1.0^[4,13]]trideca-4(13),5,7-trien-11-yl]carbamoyl]-1H-indole-5-carbonylphosphonic acid] | 100 to 1000

Same assay, conditions: read-out: STAT3 HiBiT A549 degradation 24 h: Average external-Abs DC50; A549, 24 h

Compound | DC50 [nM]
C[C@@H](OCc1ccc(Br)cc1)[C@H](CCC(N)=O)NC(=O)[C@@H]1CC[C@@H]2CCN(C(=O)CCCCCCc3ccc4c(c3)n(C)c(=O)n4C3CCC(=O)NC3=O)C[C@H](NC(=O)c3cc4cc(C(=O)P(=O)(O)O)ccc4[nH]3)C(=O)N21 (stereo partly drawn) [Compound I-183, 2-[[(5S,8S,10aR)-8-[[(3S,4R)-4-[(4-bromophenyl)methoxy]-1-carbamoylpentan-3-yl]carbamoyl]-3-[7-[1-(2,6-dioxopiperidin-3-yl)-3-methyl-2-oxo-1,3-benzodiazol-5-yl]heptanoyl]-6-oxo-octahydropyrrolo[1,2-a][1,5]diazocin-5-yl]carbamoyl]-1H-indole-5-carbonylphosphonic acid] | 100 to 1000
